The source of these data is ChEMBL document CHEMBL1201862, “PubChem BioAssay data set” (2004).

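Growth conditions: 96-well plates. Treatment: test compound, 48 hours, 5 concentrations. Analysis: linear interpolation between bracketing concentrations; unreached endpoints set to highest concentration. GI50 = concentration required for 50% inhibition of growth.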 Activity calls are given as the source filed them. Cut-off read from the data, not from the text of the source: active = GI50 up to about 1.1 µM and inactive = higher.

Some test systems named below: SK-MEL-2; SK-OV-3; OVCAR-5; UACC-257; M14; NCI-H522; HT-29; SF-268; SF-539; MOLT-4; U-251; Hs-578T; SR; UO-31; OVCAR-4; BT-549; UACC-62; EKVX; HCC 2998; T47D.
What all share (assay): growth of human tumour cells (NCI), 48 h

Take `O=C1Nc2nccnc2C(=O)N2CCC[C@@H]12`: the GI50 in the test on SK-MEL-2, in the test on SK-OV-3, in the test on OVCAR-5, in the test with UACC-257, with M14 and in the test with NCI-H522 was > 100 µM (inactive) throughout. Further, the GI50 with HT-29, with SF-268, with SF-539, in the test with MOLT-4, in the test with U-251 and with Hs-578T was > 100 µM (inactive) each time. Moreover, the GI50 in the test on SR, in the test with UO-31, with OVCAR-4, in the test on BT-549, in the test on UACC-62 and in the test on EKVX was > 100 µM (inactive) each time. Further, the GI50 in the test with HCC 2998 and in the test with T47D was > 100 µM (inactive) throughout.

As to `CC(C)C[C@H](NC(=O)[C@H](Cc1cccc2ccccc12)NC(=O)N1CCOCC1)B(O)O`, the GI50 with SK-MEL-2 is < 0.01 µM (active); with SK-OV-3 it was 0.008 µM (active); in the test on OVCAR-5 it was < 0.01 µM (active); in the test with UACC-257, < 0.01 µM (active); with M14 it was < 0.01 µM (active); in the test on NCI-H522, < 0.01 µM (active). Besides, the GI50 in the test with HT-29, with SF-268, with SF-539, in the test on MOLT-4, with U-251 and in the test with Hs-578T was < 0.01 µM (active) in each case. Besides, the GI50 with SR was < 0.0126 µM (active); in the test with UO-31 it was 0.0313 µM (active); with OVCAR-4, < 0.01 µM (active); in the test on BT-549, < 0.01 µM (active); in the test on UACC-62, < 0.01 µM (active); with EKVX it was 0.0334 µM (active). Further, the GI50 in the test on HCC 2998 and in the test with T47D was < 0.01 µM (active) each time.

Regarding `O=C1c2ccccc2-[n+]2ccc3c([nH]c4ccccc43)c21` [FASCAPLYSIN CHLORIDE], the GI50 in the test with SK-MEL-2 is 0.226 µM (active); in the test on SK-OV-3, 1.56 µM (inactive); in the test with OVCAR-5, 0.48 µM (active); in the test on UACC-257 it was 0.327 µM (active); with M14 it was 0.159 µM (active); in the test with NCI-H522, 0.49 µM (active). Also, the GI50 is 0.37 µM (active) in the test with HT-29; 0.247 µM (active) with SF-268; 0.349 µM (active) in the test on SF-539; 0.285 µM (active) in the test with MOLT-4; 0.274 µM (active) in the test on U-251; 1.24 µM (inactive) in the test with Hs-578T. Moreover, the GI50 was 0.132 µM (active) in the test on SR; 0.682 µM (active) in the test with UO-31; 0.628 µM (active) in the test with OVCAR-4; 2.26 µM (inactive) in the test on BT-549; 0.242 µM (active) in the test on UACC-62; 0.274 µM (active) with EKVX. The GI50 is 0.19 µM (active) in the test with HCC 2998 and 0.755 µM (active) in the test on T47D.

`O=C1c2cccc3cccc(c23)C(=O)N1CCCNCCCNCCCCNCCCNCCCN1C(=O)c2cccc3cccc(c23)C1=O`: the GI50 was 4.01 µM (inactive) in the test with SK-MEL-2; 12.9 µM (inactive) with SK-OV-3; 6.14 µM (inactive) with OVCAR-5; 6.7 µM (inactive) with UACC-257; 4.06 µM (inactive) with M14; 0.789 µM (active) in the test with NCI-H522. In addition, the GI50 in the test with HT-29 was 1.39 µM (inactive); with SF-268, 1.93 µM (inactive); in the test on SF-539 it was 3.52 µM (inactive); in the test with MOLT-4, 0.376 µM (active); in the test with U-251 it was 1.84 µM (inactive); in the test on Hs-578T, 1.68 µM (inactive). Moreover, the GI50 with SR is 0.929 µM (active); in the test on UO-31, 13.1 µM (inactive); in the test on OVCAR-4 it was 2.83 µM (inactive); with BT-549 it was 3.74 µM (inactive); with UACC-62, 2.82 µM (inactive); in the test with EKVX it was 5.48 µM (inactive). The GI50 was 3.52 µM (inactive) in the test on HCC 2998 and 5.26 µM (inactive) with T47D.

Regarding `NC(=O)C1CCN(Cc2c(Cl)c(Cl)c(CN3CCC(C(N)=O)CC3)c(Cl)c2Cl)CC1`, the GI50 is 42.9 µM (inactive) in the test with SK-MEL-2; 15.1 µM (inactive) with SK-OV-3; > 100 µM (inactive) in the test on OVCAR-5; > 100 µM (inactive) in the test with UACC-257; 86.3 µM (inactive) with M14; > 100 µM (inactive) in the test with NCI-H522. Also, the GI50 with HT-29 was > 100 µM (inactive); with SF-268 it was 44.7 µM (inactive); in the test with SF-539, 28.4 µM (inactive); with MOLT-4, > 100 µM (inactive); in the test with U-251, 34.8 µM (inactive); with Hs-578T it was 49.9 µM (inactive). For the same molecule, the GI50 is > 100 µM (inactive) in the test with SR; 63.5 µM (inactive) with UO-31; > 100 µM (inactive) in the test on OVCAR-4; > 100 µM (inactive) in the test on BT-549; > 100 µM (inactive) with UACC-62; 38.6 µM (inactive) in the test with EKVX. Further, the GI50 with HCC 2998 and with T47D was > 100 µM (inactive) in each case.

Take `CCOC(=O)CCC(NC(=O)c1ccc(OCc2ccc3nc(-c4ccccc4)c(Cl)nc3c2)cc1)C(=O)OCC` (stereo not given): the GI50 with SK-MEL-2 is 12.4 µM (inactive); with SK-OV-3, 52.1 µM (inactive); in the test on OVCAR-5 it was > 31.6 µM (inactive); with UACC-257, > 31.6 µM (inactive); in the test on M14, > 31.6 µM (inactive); in the test on NCI-H522, 17.4 µM (inactive). In addition, the GI50 with HT-29 is > 31.6 µM (inactive); in the test with SF-268, 15 µM (inactive); in the test with SF-539, 15.8 µM (inactive); in the test on MOLT-4, > 31.6 µM (inactive); in the test on U-251, 18.4 µM (inactive); in the test with Hs-578T, 14.9 µM (inactive). For the same molecule, the GI50 in the test on SR is 12.9 µM (inactive); with UO-31, > 31.6 µM (inactive); in the test with OVCAR-4, 16.4 µM (inactive); in the test with BT-549 it was 22.3 µM (inactive); in the test with UACC-62 it was > 31.6 µM (inactive); with EKVX, 19.9 µM (inactive). The results for the GI50 in the test with HCC 2998 and with T47D were > 31.6 µM (inactive) and 16.6 µM (inactive), respectively.

Turning to `CCc1nc(N)nc(N)c1-c1ccc(Cl)c(/N=C/N(C)C)c1`, the GI50 in the test with SK-MEL-2 is > 100 µM (inactive); with SK-OV-3, > 100 µM (inactive); with OVCAR-5 it was > 100 µM (inactive); in the test on UACC-257 it was > 100 µM (inactive); in the test on M14, 52.5 µM (inactive); in the test on NCI-H522, 24.1 µM (inactive). For the same molecule, the GI50 in the test on HT-29 is 18.8 µM (inactive); in the test with SF-268, 62.1 µM (inactive); in the test with SF-539, 45.3 µM (inactive); with MOLT-4, 34.8 µM (inactive); in the test on U-251, 54.6 µM (inactive); with Hs-578T it was > 100 µM (inactive). For the same molecule, the GI50 in the test on SR was 31.1 µM (inactive); with UO-31 it was > 100 µM (inactive); in the test on OVCAR-4 it was 72.3 µM (inactive); in the test with BT-549, > 81.7 µM (inactive); in the test with UACC-62 it was 35.8 µM (inactive); in the test with EKVX, > 87.3 µM (inactive). The GI50 is 41.2 µM (inactive) in the test on HCC 2998 and 77.3 µM (inactive) with T47D.

As for `CCOC(=O)C(SCCO)C(C(=O)OCC)n1cnc2c(=O)[nH]c(NC(C)=O)nc21` (stereo not given), the GI50 in the test on SK-MEL-2, in the test with SK-OV-3, in the test on OVCAR-5, with UACC-257, in the test with M14 and with NCI-H522 was > 100 µM (inactive) each time. In addition, the GI50 in the test on HT-29, in the test on SF-268, with SF-539, with MOLT-4, in the test on U-251 and in the test with Hs-578T was > 100 µM (inactive) throughout. Further, the GI50 in the test on SR was 21.4 µM (inactive); in the test with UO-31 it was > 100 µM (inactive); with OVCAR-4, > 100 µM (inactive); in the test on BT-549, > 100 µM (inactive); with UACC-62 it was > 100 µM (inactive); with EKVX it was > 100 µM (inactive). For the same molecule, the GI50 in the test with HCC 2998 and in the test with T47D was > 100 µM (inactive) in each case.

As for `CCCOC(=O)c1cc(O)c(O)c(O)c1` [PROPYL GALLATE], the GI50 in the test on SK-MEL-2 was 28.1 µM (inactive); in the test with SK-OV-3, > 100 µM (inactive); in the test on OVCAR-5, 49.9 µM (inactive); in the test on UACC-257, > 100 µM (inactive); with M14 it was 20.8 µM (inactive); with NCI-H522 it was 8.2 µM (inactive). In addition, the GI50 with HT-29 is 32.2 µM (inactive); with SF-268 it was 27.7 µM (inactive); with SF-539, 10.9 µM (inactive); in the test with MOLT-4 it was 5.83 µM (inactive); in the test with U-251 it was 56.4 µM (inactive); in the test with Hs-578T, 17.5 µM (inactive). Further, the GI50 in the test with SR was > 100 µM (inactive); in the test with UO-31, 8.95 µM (inactive); with OVCAR-4, > 100 µM (inactive); in the test on BT-549, 43.8 µM (inactive); in the test with UACC-62, 24.7 µM (inactive); in the test on EKVX, 27.7 µM (inactive). In addition, the GI50 in the test with HCC 2998 is 45.1 µM (inactive); with T47D, 62.1 µM (inactive).

`N#C/C(=C1C=C(Br)/C(=N\O)C=C\1Cl)c1cccc2ccccc12`: the GI50 in the test on SK-MEL-2 was 2.48 µM (inactive); with SK-OV-3, 5.33 µM (inactive); with OVCAR-5 it was 3.55 µM (inactive); in the test with UACC-257, 6.62 µM (inactive); in the test with M14, 2.77 µM (inactive); in the test with NCI-H522, 2.52 µM (inactive). Also, the GI50 with HT-29 is 2.26 µM (inactive); in the test with SF-268, 4.47 µM (inactive); in the test with SF-539, 1.96 µM (inactive); in the test on MOLT-4, 3.75 µM (inactive); in the test on U-251 it was 2.96 µM (inactive); with Hs-578T, 3.55 µM (inactive). For the same molecule, the GI50 in the test on SR is 3.11 µM (inactive); in the test on UO-31 it was 11 µM (inactive); with OVCAR-4, 2.49 µM (inactive); in the test with BT-549, 7.43 µM (inactive); in the test on UACC-62, 4.12 µM (inactive); in the test on EKVX, 10.8 µM (inactive). Also, the GI50 with HCC 2998 was 5.77 µM (inactive); in the test on T47D it was 2.38 µM (inactive).
